Columns and labels:
UO31 = test: cells; parameters: Sulforhodamine B growth/viability assay on tumour cell line panel (Oncolead), six dilutions, compound replenished daily; details: Homo sapiens, UO-31; 72 h, SRB; read-out: Supplementary table 1 / A4 IC50
Description: (§1) Screening of 94 different cancer cell lines spanning over 18 human tissues was performed by Oncolead Ltd. The company used an identical platform to the one NIH, NCI-60 uses to assess the effect of a compound on the viability of a variety of tumour cell lines. Briefly, cells are treated with a series of six dilutions of a compound for 72 h (compound is replenished daily). After 72 h, cells were fixed (living cells are attached to the plate), and then washed to remove dead and dying cells. Cells were then stained with a dye (sulforhodamine B) that dyes all proteins purple, which is measured by a plate reader and provides quantification of living cells. The number of cells treated with the compound is compared to the number of cells treated with DMSO (solvent). The inhibitory concentration (IC) value was calculated by taking the number of cells after 72 h of treatment and dividing by the number of cells after 72 h treatment with DMSO (C). IC50 is the value calculated from the dose–response plot, which is the concentration of the compound that has 50% decrease of the IC. To determine the specificity of A4 killing for various types of cancer, a panel of 94 cancer cell lines representing 18 different types of cancers were tested. The IC50 values for each cell line treated with A4 were determined (Oncolead Ltd). The cancers that were most sensitive to A4 killing were of haematological origin (8/12 different cell lines), melanoma (3/5 lines), pancreatic cancer and 4/7 lung cancers. Importantly, peripheral blood mononuclear cells (PBMCs), representing healthy normal cells, and 184A1, a normal human epithelium mammary gland cell, were not killed by A4 (Fig. 5a, Supplementary Table 1 and Fig. 5cI, respectively). To explore whether the levels of XIAP and Bcl-2 protein affect the sensitivity to A4, we analysed the available web proteomes and looked for a correlation. While data regarding XIAP expression levels were found in most proteomes (28 of 32 proteomes), Bcl-2 expression data were only detected in few (9 of 32 proteomes) (data not shown). A significant correlation was found between XIAP expression levels (ratio to actin, GAPDH) and the sensitivity to A4 (IC50, µM) in breast, ovary and kidney carcinomas (Fig. 5bI, II and Supplementary Tables 1 and 2). Cancer cell lines with high levels of XIAP were particularly sensitive to the killing effect of A4 (Fig. 5bI, II and Supplementary Tables 1 and 2). […] To further confirm that A4 functions as a specific antagonist for XIAP, we performed a SKOV-3 rescue assay. SKOV-3 ovarian carcinoma cells are highly sensitive to SMs[49]. SMs act by antagonizing cIAPs, an event that leads to cell death when complemented by an XIAP-dependent increase in TNFα production[47],[48],[58]. In SKOV-3 cells, XIAP is required for TNFα production, which recruits cIAP into a complex that activates caspase-8 and apoptosis through the extrinsic pathway (Fig. 6a)[49]. Knockdown of XIAP in SKOV-3 cells bestowed resistance to SMs[49]. We utilized this assay to investigate the specificity of A4 for XIAP compared to cIAPs. Treatment with 1 μM of the SM Birinapant for […]

Caco-2 = test: cells; parameters: Sulforhodamine B growth/viability assay on tumour cell line panel (Oncolead), six dilutions, compound replenished daily; details: Homo sapiens, Caco-2; 72 h, SRB; read-out: Supplementary table 1 / A4 IC50
Description: as §1

HEK293 = test: cells; parameters: Sulforhodamine B growth/viability assay on tumour cell line panel (Oncolead), six dilutions, compound replenished daily; details: Homo sapiens, HEK293; 72 h, SRB; read-out: Supplementary table 1 / A4 IC50
Description: as §1

SKOV-3 = test: cells; parameters: Sulforhodamine B growth/viability assay on tumour cell line panel (Oncolead), six dilutions, compound replenished daily; details: Homo sapiens, SK-OV-3; 72 h, SRB; read-out: Supplementary table 1 / A4 IC50
Description: as §1

MDAMB231 = test: cells; parameters: Sulforhodamine B growth/viability assay on tumour cell line panel (Oncolead), six dilutions, compound replenished daily; details: Homo sapiens, MDA-MB-231; 72 h, SRB; read-out: Supplementary table 1 / A4 IC50
Description: as §1

DLD1 = test: cells; parameters: Sulforhodamine B growth/viability assay on tumour cell line panel (Oncolead), six dilutions, compound replenished daily; details: Homo sapiens, DLD-1; 72 h, SRB; read-out: Supplementary table 1 / A4 IC50
Description: as §1

MDAMB468 = test: cells; parameters: Sulforhodamine B growth/viability assay on tumour cell line panel (Oncolead), six dilutions, compound replenished daily; details: Homo sapiens, MDA-MB-468; 72 h, SRB; read-out: Supplementary table 1 / A4 IC50
Description: as §1

ACHN = test: cells; parameters: Sulforhodamine B growth/viability assay on tumour cell line panel (Oncolead), six dilutions, compound replenished daily; details: Homo sapiens, ACHN; 72 h, SRB; read-out: Supplementary table 1 / A4 IC50
Description: as §1

SW620 = test: cells; parameters: Sulforhodamine B growth/viability assay on tumour cell line panel (Oncolead), six dilutions, compound replenished daily; details: Homo sapiens, SW-620; 72 h, SRB; read-out: Supplementary table 1 / A4 IC50
Description: as §1

COLO205 = test: cells; parameters: Sulforhodamine B growth/viability assay on tumour cell line panel (Oncolead), six dilutions, compound replenished daily; details: Homo sapiens, COLO 205; 72 h, SRB; read-out: Supplementary table 1 / A4 IC50
Description: as §1

HCT15 = test: cells; parameters: Sulforhodamine B growth/viability assay on tumour cell line panel (Oncolead), six dilutions, compound replenished daily; details: Homo sapiens, HCT-15; 72 h, SRB; read-out: Supplementary table 1 / A4 IC50
Description: as §1

OVCAR4 = test: cells; parameters: Sulforhodamine B growth/viability assay on tumour cell line panel (Oncolead), six dilutions, compound replenished daily; details: Homo sapiens, OVCAR-4; 72 h, SRB; read-out: Supplementary table 1 / A4 IC50
Description: as §1

HT-29 = test: cells; parameters: Sulforhodamine B growth/viability assay on tumour cell line panel (Oncolead), six dilutions, compound replenished daily; details: Homo sapiens, HT-29; 72 h, SRB; read-out: Supplementary table 1 / A4 IC50
Description: as §1

OVCAR3 = test: cells; parameters: Sulforhodamine B growth/viability assay on tumour cell line panel (Oncolead), six dilutions, compound replenished daily; details: Homo sapiens, OVCAR-3; 72 h, SRB; read-out: Supplementary table 1 / A4 IC50
Description: as §1

786-0 = test: cells; parameters: Sulforhodamine B growth/viability assay on tumour cell line panel (Oncolead), six dilutions, compound replenished daily; details: Homo sapiens, 786-0; 72 h, SRB; read-out: Supplementary table 1 / A4 IC50
Description: as §1

LOVO = test: cells; parameters: Sulforhodamine B growth/viability assay on tumour cell line panel (Oncolead), six dilutions, compound replenished daily; details: Homo sapiens, LoVo; 72 h, SRB; read-out: Supplementary table 1 / A4 IC50
Description: as §1

MDAMB436 = test: cells; parameters: Sulforhodamine B growth/viability assay on tumour cell line panel (Oncolead), six dilutions, compound replenished daily; details: Homo sapiens, MDA-MB-436; 72 h, SRB; read-out: Supplementary table 1 / A4 IC50
Description: as §1

MCF-7 = test: cells; parameters: Sulforhodamine B growth/viability assay on tumour cell line panel (Oncolead), six dilutions, compound replenished daily; details: Homo sapiens, MCF7; 72 h, SRB; read-out: Supplementary table 1 / A4 IC50
Description: as §1

HS578T = test: cells; parameters: Sulforhodamine B growth/viability assay on tumour cell line panel (Oncolead), six dilutions, compound replenished daily; details: Homo sapiens, Hs-578T; 72 h, SRB; read-out: Supplementary table 1 / A4 IC50
Description: as §1

IGROV-1 = test: cells; parameters: Sulforhodamine B growth/viability assay on tumour cell line panel (Oncolead), six dilutions, compound replenished daily; details: Homo sapiens, IGROV-1; 72 h, SRB; read-out: Supplementary table 1 / A4 IC50
Description: as §1

Caki1 = test: cells; parameters: Sulforhodamine B growth/viability assay on tumour cell line panel (Oncolead), six dilutions, compound replenished daily; details: Homo sapiens, CAKI-1; 72 h, SRB; read-out: Supplementary table 1 / A4 IC50
Description: as §1

HCT116 = test: cells; parameters: Sulforhodamine B growth/viability assay on tumour cell line panel (Oncolead), six dilutions, compound replenished daily; details: Homo sapiens, HCT-116; 72 h, SRB; read-out: Supplementary table 1 / A4 IC50
Description: as §1

SKBR3 = test: cells; parameters: Sulforhodamine B growth/viability assay on tumour cell line panel (Oncolead), six dilutions, compound replenished daily; details: Homo sapiens, SK-BR-3; 72 h, SRB; read-out: Supplementary table 1 / A4 IC50
Description: as §1

COLO678 = test: cells; parameters: Sulforhodamine B growth/viability assay on tumour cell line panel (Oncolead), six dilutions, compound replenished daily; details: Homo sapiens, COLO-678; 72 h, SRB; read-out: Supplementary table 1 / A4 IC50
Description: as §1

XIAP = target: T1, XIAP (Homo sapiens, UniProt P98170); test: microscale thermophoresis (MST); format: binding
T1 construct: recombinant untagged XIAP, NT650-labelled (maleimide coupling)
T1 sequence (P98170 whole entry): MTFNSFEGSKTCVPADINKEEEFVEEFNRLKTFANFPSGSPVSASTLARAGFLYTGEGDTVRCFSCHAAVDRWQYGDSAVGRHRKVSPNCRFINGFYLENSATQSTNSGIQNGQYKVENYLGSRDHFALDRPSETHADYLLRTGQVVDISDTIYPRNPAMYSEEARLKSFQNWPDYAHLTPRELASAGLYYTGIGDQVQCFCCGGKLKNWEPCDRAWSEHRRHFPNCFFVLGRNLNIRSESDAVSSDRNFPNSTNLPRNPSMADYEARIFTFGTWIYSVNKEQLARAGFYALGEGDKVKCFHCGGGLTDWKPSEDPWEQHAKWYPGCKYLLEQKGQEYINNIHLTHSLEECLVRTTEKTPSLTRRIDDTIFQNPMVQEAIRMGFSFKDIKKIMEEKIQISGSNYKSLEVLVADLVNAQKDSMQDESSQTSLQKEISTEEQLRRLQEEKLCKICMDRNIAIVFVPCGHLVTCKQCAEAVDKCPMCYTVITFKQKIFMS

In the case of `COC(=O)c1[nH]c2ccc(Cl)cc2c1NC(=O)CN1CCN(Cc2ccccc2)CC1` [A4, methyl 5-chloro-3-[[2-[4-(phenylmethyl)piperazin-1-yl]acetyl]amino]-1H-indole-2-carboxylat], the IC50 (UO31) is reported as 6.48 µM, the IC50 (Caco-2) is reported as 8.14 µM and the IC50 (HEK293) is reported as 2.8 µM. The IC50 (SKOV-3) was 13.6 µM, the IC50 (MDAMB231) was 10.1 µM and the IC50 (DLD1) was 8.24 µM. For the same compound, the IC50 (MDAMB468) was 6.22 µM, the IC50 (ACHN) was 5.99 µM and the IC50 (SW620) was 10.4 µM. It also gave an IC50 (COLO205) of 7.38 µM, an IC50 (HCT15) of 5.03 µM and an IC50 (OVCAR4) of 9.99 µM. It also gave an IC50 (HT-29) of 1.84 µM, an IC50 (OVCAR3) of 8.4 µM and an IC50 (786-0) of 6.3 µM. The IC50 (LOVO) was 5.96 µM, the IC50 (MDAMB436) was 7.16 µM and the IC50 (MCF-7) was 4.61 µM. For the same compound, the IC50 (HS578T) was 9.56 µM, the IC50 (IGROV-1) was 8.08 µM and the IC50 (Caki1) was 8.14 µM. It also gave an IC50 (HCT116) of 11.2 µM, an IC50 (SKBR3) of 7.98 µM and an IC50 (COLO678) of 14.4 µM. The Kd (XIAP) was 0.348 ± 0.228 µM.

From publication PMC7316745, “A small-molecule ARTS mimetic promotes apoptosis through degradation of both XIAP and Bcl-2” (Cell Death & Disease, 2020)
